T/C data for 19 molecules are collected here from PubChem BioAssay AID256 (DTP/NCI, 2004).

Several values for one entry are separate records, joined by “and”; a condition that tells them apart may be missing. Equal entries are not always repeated. Toxic doses and inconclusive results are not listed.

This test has as its system CD2F1 mice, L1210 leukemia ip, survival T/C. As to the kind of experiment: NCI In Vivo Anticancer Drug Screen. Data for tumor model L1210 Leukemia (intraperitoneal) in CD2F1 (CDF1) mice. The note with it: higher = longer survival. A digest of the protocol:
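Transplantable tumor in mice; compound-treated vs vehicle-treated groups. Read-out = treated/control ratio of the measured endpoint.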

The mark [1] stands for this setting: endpoint: mean survival time, dose: 100.0 mg/kg/injection, schedule: Q01DX009 (ip), vehicle: saline with Tween-80.
The mark [2] stands for this setting: endpoint: mean survival time, dose: 100.0 mg/kg/injection, schedule: Q04DX003 (ip), vehicle: saline with Tween-80.
The mark [3] stands for this setting: endpoint: mean survival time, dose: 200.0 mg/kg/injection, schedule: Q01DX009 (ip), vehicle: saline with Tween-80.
Where [4] appears, read: endpoint: mean survival time, dose: 200.0 mg/kg/injection, schedule: Q04DX003 (ip), vehicle: saline with Tween-80.
Setting [5] is: endpoint: mean survival time, dose: 400.0 mg/kg/injection, schedule: Q04DX003 (ip), vehicle: saline with Tween-80.
Where [6] appears, read: endpoint: mean survival time, dose: 25.0 mg/kg/injection, schedule: Q01DX009 (ip), vehicle: saline with Tween-80.
Where [7] appears, read: endpoint: mean survival time, dose: 50.0 mg/kg/injection, schedule: Q01DX009 (ip), vehicle: saline with Tween-80.
Setting [8] is: endpoint: mean survival time, dose: 50.0 mg/kg/injection, schedule: Q01DX009 (ip), vehicle: saline.
The mark [9] stands for this setting: endpoint: mean survival time, dose: 100.0 mg/kg/injection, schedule: Q01DX009 (ip), vehicle: saline.
Where [10] appears, read: endpoint: mean survival time, dose: 5.0 mg/kg/injection, schedule: Q01DX001 (ip), vehicle: saline.
The mark [11] stands for this setting: endpoint: mean survival time, dose: 10.0 mg/kg/injection, schedule: Q01DX001 (ip), vehicle: saline.
The mark [12] stands for this setting: endpoint: mean survival time, dose: 20.0 mg/kg/injection, schedule: Q01DX001 (ip), vehicle: saline.

As for `O=C(O)c1cc(Br)c(-c2c(Br)cc(C(=O)O)cc2[N+](=O)[O-])c([N+](=O)[O-])c1`, the T/C runs as follows: under setting [1], 98 % of control; under setting [2], 86 % of control; under setting [3], 100 % of control; under setting [4], 94 % of control; under setting [5], 91 % of control.
For `CCc1ccc(NC(=O)c2ccc(C(=O)Nc3ccc(CC)cc3)cc2)cc1`, the T/C is 95 % of control (endpoint: mean survival time, dose: 100.0 mg/kg/injection, schedule: Q01DX001 (ip), vehicle: saline); 95 % of control (endpoint: mean survival time, dose: 200.0 mg/kg/injection, schedule: Q01DX001 (ip), vehicle: saline); 104 % of control (endpoint: mean survival time, dose: 400.0 mg/kg/injection, schedule: Q01DX001 (ip), vehicle: saline).
As for `CN(C)CCSc1cc(O)c2c(c1O)C(=O)c1ccccc1C2=O`, the T/C was 95 % of control (endpoint: mean survival time, dose: 25.0 mg/kg/injection, schedule: Q01DX009 (ip), vehicle: water); 98 % of control (endpoint: mean survival time, dose: 50.0 mg/kg/injection, schedule: Q01DX009 (ip), vehicle: water); 92 % of control (endpoint: mean survival time, dose: 100.0 mg/kg/injection, schedule: Q01DX009 (ip), vehicle: water); 95 % of control (endpoint: mean survival time, dose: 200.0 mg/kg/injection, schedule: Q01DX009 (ip), vehicle: water).
Take `CC1CCCC(C)N1C1=NCCO1` (stereo not drawn): the T/C (endpoint: mean survival time, dose: 5.0 mg/kg/injection, schedule: Q04DX003 (ip), vehicle: saline) is 102 % of control; the T/C (endpoint: mean survival time, dose: 10.0 mg/kg/injection, schedule: Q04DX003 (ip), vehicle: saline) is 97 % of control; the T/C (endpoint: mean survival time, dose: 20.0 mg/kg/injection, schedule: Q04DX003 (ip), vehicle: saline) was 94 % of control.
In the case of `CCN(CC)CCOc1ccc(C2=CC3(CCCCC3)c3ccccc32)cc1`, the T/C is, setting by setting: (endpoint: mean survival time, dose: 12.5 mg/kg/injection, schedule: Q04DX002 (ip), vehicle: saline with Tween-80) 106 % of control; (endpoint: mean survival time, dose: 25.0 mg/kg/injection, schedule: Q04DX002 (ip), vehicle: saline with Tween-80) 98 % of control.
For the molecule `CCOC(=O)c1ccc(Cl)cc1`, the T/C was 101 % of control under setting [6], 102 % of control under setting [7] and 95 % of control under setting [1].
As to `COc1cccc2c1C(=O)c1c(O)c3c(c(O)c1C2=O)C[C@@](O)(C(=O)COC(=O)c1cccnc1)C[C@@H]3OC1CC(N)C(O)C(C)O1` (stereo partly drawn), the T/C reads like this: (endpoint: mean survival time, dose: 0.25 mg/kg/injection, schedule: Q01DX009 (ip), vehicle: water) 104 % of control; (endpoint: mean survival time, dose: 0.4 mg/kg/injection, schedule: Q01DX009 (ip), vehicle: saline with Tween-80) 120 % of control; (endpoint: mean survival time, dose: 0.5 mg/kg/injection, schedule: Q01DX009 (ip), vehicle: water) 109 % of control; (endpoint: mean survival time, dose: 1.0 mg/kg/injection, schedule: Q01DX009 (ip), vehicle: water) 122 % of control; (endpoint: mean survival time, dose: 1.5 mg/kg/injection, schedule: Q01DX009 (ip), vehicle: saline) 168 % of control; (endpoint: mean survival time, dose: 2.0 mg/kg/injection, schedule: Q01DX009 (ip), vehicle: water) 120 % of control. Moreover, the T/C (endpoint: mean survival time, dose: 4.0 mg/kg/injection, schedule: Q01DX009 (ip), vehicle: water) is 108 % of control.
Regarding `CCN(CC)CCOC(=O)c1ccccc1Nc1cccc(C)c1`, the T/C runs as follows: (endpoint: mean survival time, dose: 25.0 mg/kg/injection, schedule: Q01DX009 (ip), vehicle: saline) 89 % of control; under setting [8], 101 % of control; under setting [9], 97 % of control.
`CC(=O)C1CCC2C3CC=C4CC(OC(=O)CCC(C)C)CCC4(C)C3CCC12C` (stereo not drawn): the T/C reads like this: under setting [2], 95 % of control; under setting [4], 95 % of control; under setting [5], 92 % of control.
As for `CCOC(=O)CO`, the T/C is, setting by setting: under setting [8], 104 % of control; under setting [9], 93 % of control; (endpoint: mean survival time, dose: 200.0 mg/kg/injection, schedule: Q01DX009 (ip), vehicle: saline) 101 % of control.
Take `CN(C)N=Nc1cc(C(F)(F)F)cc(C(F)(F)F)c1`: the T/C is 104 % of control under setting [6]; 101 % of control under setting [7]; 98 % of control under setting [1]; 95 % of control under setting [3]; 104 % of control (endpoint: mean survival time, dose: 400.0 mg/kg/injection, schedule: Q01DX009 (ip), vehicle: saline with Tween-80).
On to `COc1cc2cc[n+]3c(C)c4ccc(OC)c(OC)c4cc3c2cc1OC` (tested in a mixture with another compound), for which the T/C is 108 % of control (endpoint: mean survival time, dose: 5.0 mg/kg/injection, schedule: Q01DX009 (ip), vehicle: saline) and 121 % of control (endpoint: mean survival time, dose: 60.0 mg/kg/injection, schedule: Q01DX009 (ip), vehicle: saline).
Turning to `C=C(C)CNC1=C(C)C(=O)C2=C(C1=O)[C@@H](COC(N)=O)[C@]1(O)[C@H]3[C@@H](CN21)N3C` (stereo partly drawn), the T/C runs as follows: (endpoint: mean survival time, dose: 1.5 mg/kg/injection, schedule: Q01DX001 (ip), vehicle: water) 97 % of control; (endpoint: mean survival time, dose: 3.0 mg/kg/injection, schedule: Q01DX001 (ip), vehicle: water) 97 % of control; (endpoint: mean survival time, dose: 6.0 mg/kg/injection, schedule: Q01DX001 (ip), vehicle: water) 103 % of control; (endpoint: mean survival time, dose: 12.0 mg/kg/injection, schedule: Q01DX001 (ip), vehicle: water) 98 % of control; (endpoint: mean survival time, dose: 24.0 mg/kg/injection, schedule: Q01DX001 (ip), vehicle: water) 106 % of control; (endpoint: mean survival time, dose: 100.0 mg/kg/injection, schedule: Q01DX001 (ip), vehicle: distilled water + Tween-80) 156 % of control.
For `Nc1ncnc2c1ccn2C1OC2COP(=O)(O)OC2C1O` (stereo not drawn), the T/C by setting is: under setting [10], 98 % of control; under setting [11], 102 % of control; under setting [12], 114 % of control; (endpoint: mean survival time, dose: 40.0 mg/kg/injection, schedule: Q01DX001 (ip), vehicle: saline) 117 % of control.
On to `c1ccc(NSc2ccccc2)cc1`, for which the T/C by setting is: under setting [7], 101 % of control; under setting [1], 101 % of control; under setting [3], 96 % of control.
As for `COc1cc(C(Cl)C2OC(CO)C(O)C2O)nc(C)n1` (stereo not drawn), the T/C is 110 % of control (endpoint: median survival time, dose: 18.38 mg/kg/injection, schedule: Q01DX005 (ip), vehicle: saline); 103 % of control (endpoint: median survival time, dose: 26.0 mg/kg/injection, schedule: Q01DX005 (ip), vehicle: saline); 97 % of control (endpoint: median survival time, dose: 36.75 mg/kg/injection, schedule: Q01DX005 (ip), vehicle: saline); 102 % of control (endpoint: median survival time, dose: 52.0 mg/kg/injection, schedule: Q01DX005 (ip), vehicle: saline); 100 % of control (endpoint: median survival time, dose: 73.5 mg/kg/injection, schedule: Q01DX005 (ip), vehicle: saline); 107 % of control (endpoint: median survival time, dose: 104.0 mg/kg/injection, schedule: Q01DX005 (ip), vehicle: saline). The T/C was 103 % of control (endpoint: median survival time, dose: 147.0 mg/kg/injection, schedule: Q01DX005 (ip), vehicle: saline) and 101 % of control (endpoint: median survival time, dose: 208.0 mg/kg/injection, schedule: Q01DX005 (ip), vehicle: saline).
Consider `COC1C(O)C(C)OC(OC2C(Oc3cccc4c(O)c5c(=O)oc6ccc(C)c7c(=O)oc(c34)c5c67)OC(C)C(O)C2O)C1O` (stereo not drawn), for which the T/C is 116 % of control (endpoint: mean survival time, dose: 5.0 mg/kg/injection, schedule: Q01DX009 (ip), vehicle: saline with Tween-80); 115 % of control (endpoint: mean survival time, dose: 10.0 mg/kg/injection, schedule: Q01DX009 (ip), vehicle: saline with Tween-80); 116 % of control (endpoint: mean survival time, dose: 20.0 mg/kg/injection, schedule: Q01DX009 (ip), vehicle: saline with Tween-80); 123 % of control (endpoint: mean survival time, dose: 80.0 mg/kg/injection, schedule: Q01DX009 (ip), vehicle: saline with Tween-80).
With `c1ccc2c(c1)nnn1c3cnccc3nc21`, the T/C reads like this: (endpoint: mean survival time, dose: 1.56 mg/kg/injection, schedule: Q01DX009 (ip), vehicle: saline with Tween-80) 101 % of control and 105 % of control; (endpoint: mean survival time, dose: 3.12 mg/kg/injection, schedule: Q01DX009 (ip), vehicle: saline with Tween-80) 94 % of control and 100 % of control; under setting [10], 98 % of control; (endpoint: mean survival time, dose: 6.25 mg/kg/injection, schedule: Q01DX009 (ip), vehicle: saline with Tween-80) 97 % of control and 103 % of control; under setting [11], 101 % of control; (endpoint: mean survival time, dose: 12.5 mg/kg/injection, schedule: Q01DX009 (ip), vehicle: saline with Tween-80) 101 % of control. The T/C under setting [12] was 98 % of control and the T/C under setting [6] was 103 % of control.
For the molecule `O=C1c2ccccc2C(=O)c2c(O)c(S(=O)(=O)O)cc(O)c21`, the T/C is, setting by setting: (endpoint: mean survival time, dose: 100.0 mg/kg/injection, schedule: Q04DX003 (ip), vehicle: saline) 93 % of control; (endpoint: mean survival time, dose: 200.0 mg/kg/injection, schedule: Q04DX003 (ip), vehicle: saline) 96 % of control.
